Experimental findings from patent publication US20170007610A1, “NOVEL HETEROBICYCLIC COMPOUNDS AS KAPPA OPIOID AGONISTS” (priority 2014, published 2017) are described below.

Data set [1] addresses T1, kappa opioid receptor (Mus musculus, UniProt P33534).
T1 construct: from tissue; host or cells: mouse vas deferens (male Swiss Albino mice)
In words: Ex-vivo KOR agonistic activity, electrically stimulated mouse vas deferens (MVD) model.

The target in data set [2] is T2, kappa opioid receptor (Homo sapiens, UniProt P41145).
T2 construct: grown in complete Ham's F-12 medium
T2 sequence (P41145 whole entry): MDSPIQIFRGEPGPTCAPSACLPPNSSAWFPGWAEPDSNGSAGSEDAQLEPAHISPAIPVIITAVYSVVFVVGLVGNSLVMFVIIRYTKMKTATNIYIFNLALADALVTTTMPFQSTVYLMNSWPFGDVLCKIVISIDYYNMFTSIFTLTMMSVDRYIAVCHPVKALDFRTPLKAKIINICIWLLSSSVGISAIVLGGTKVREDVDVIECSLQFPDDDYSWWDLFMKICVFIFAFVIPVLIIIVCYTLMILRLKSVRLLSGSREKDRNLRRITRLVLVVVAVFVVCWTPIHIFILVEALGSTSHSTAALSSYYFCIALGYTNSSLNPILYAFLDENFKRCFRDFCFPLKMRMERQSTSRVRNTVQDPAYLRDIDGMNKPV
Put plainly: Invitro KOR agonistic activity, cAMP based functional assay. The data set is classed as cell-based.

Data set [3] deals with ICR mice. In words: Acetic acid-induced writhing model. The class given is in vivo. The note with it: Mus musculus, 0.25 h, acetic acid induced pain model, oral or i.v. administration, writhes for 15 min, read-out: In-vivo ED50. How it is done:
(§1) All the animal experiments were carried out in ICR mice, bred in-house. Animals were housed in groups of 6 animals per cage, for a week, in order to habituate them to vivarium conditions (25±4° C., 60-65% relative humidity, 12:12 h light: dark cycle, with lights on at 7.30 am). All the animal experiments were carried out according to the internationally valid guidelines following approval by the ‘Zydus Research Center animal ethical committee’.
Following oral or i.v. administration of test compounds, mice are rested for 5 min before i.p. injection with 10 ml/kg of 0.6% v/v acetic acid in normal saline. […] A writhe is defined as a constriction of the abdominal area, often with extension of the hind legs. Percentage maximum possible effect (MPE) was calculated as below:
% MPE=100−[(No. of writhes in treated mice/No. of writhes in vehicle treated mice)]×100
ED50 dose is determined using GraphPad Prism.

The subject of data set [4] is ICR mice. In words: Assessment of CNS effects (spontaneous locomotion, sedation, catalepsy), threshold dose. The data set is classed as in vivo. The note with it: lowest dose which shows pharmacodynamic effect (locomotion, sedation, catalepsy), oral or i.v. As for the experimental part:
as §1
Assessment of CNS Effects of Test Compounds
Test compounds were dissolved in normal saline injected by oral or i.v., routes in ICR mice tail vein. […] The dose is scaled down or up if pharmacodynamic effect is present or absent respectively.

A word on the IC50: it is the point on the concentration scale where inhibition reaches its midpoint. The term EC50 denotes the concentration at which the effect is half-maximal. Read a high EC50 as a need for much substance. As a reminder, the ED50 is the dose at which the effect has come halfway, by size or by number of responders.

T1 sequence (P33534 whole entry): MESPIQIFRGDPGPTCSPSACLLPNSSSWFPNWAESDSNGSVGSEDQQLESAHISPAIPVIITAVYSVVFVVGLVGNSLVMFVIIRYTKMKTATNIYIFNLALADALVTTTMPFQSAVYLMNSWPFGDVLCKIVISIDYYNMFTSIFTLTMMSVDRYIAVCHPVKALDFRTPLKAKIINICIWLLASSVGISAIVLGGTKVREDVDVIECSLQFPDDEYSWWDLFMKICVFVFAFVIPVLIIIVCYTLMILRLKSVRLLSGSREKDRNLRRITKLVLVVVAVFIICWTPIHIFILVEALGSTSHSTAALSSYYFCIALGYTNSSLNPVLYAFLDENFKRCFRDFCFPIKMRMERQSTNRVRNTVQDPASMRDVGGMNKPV

On to `CN(C(=O)COc1ccc2c(c1)OCO2)[C@H](CN1CC[C@H](O)C1)c1cccc(NS(C)(=O)=O)c1` [Compound 57, 2-(benzo[d][1,3]dioxol-5-yloxy)-N-((S)-2-((S)-3-hydroxypyrrolidin-1-yl)-1-(3-(methylsulfonamido)phenyl)ethyl)-N-methylacetamide], for which the IC50 on kappa opioid receptor [1] was 27 nM. The compound also registered an EC50 at kappa opioid receptor [2] of 0.961 nM. In addition, the ED50 in the data set on ICR mice [3] was 1.9 mg/kg. In the data set on ICR mice [4], the “CNS TD” value is reported as 60 mg/kg.
